In assay [1] the target is EGFR mutant L858R Ba/F3 cells (Homo sapiens, UniProt P00533, L858R, cells depend on it). The assay can be described thus: Ba/F3 cell proliferation (Cell Titer Glo), EGFR L858R. The assay is classed as cell-based, murine. Particulars: 72 hours, Table 6, read-out: L858R BaF3. An excerpt:
(§1) The EGFR mutant L858R Ba/F3 cells have been previously described (Zhou, W., et al. Nature 462, 2009, 1070-1074). The EGFR C797S and C775S mutations were introduced via site directed mutagenesis using the Quick Change Site-Directed Mutagenesis kit into a vector containing EGFR L858R mutation (Stratagene; La Jolla, CA) according to the manufacturer's instructions. All constructs were confirmed by DNA sequencing. The constructs were then shuttled into the retroviral vector JP1540 by either using the Cre-recombination system (Agilent Technologies, Santa Clara, CA) or the In-fusion HD Cloning kit (Takara Bio USA, Inc.; Mountain view, CA). Ba/F3 cells were then infected with retrovirus per standard protocols, as described previously (Zhou, et al, Nature 2009). Stable clones were obtained by selection in puromycin (2 μg/ml). All BaF/3 mutant cells were maintained in RPMI 1640 (Cellgro; Mediatech Inc., Herndon, CA) supplemented with 10% FBS, 100 units/mL penicillin, 100 units/mL streptomycin.
(§2) Growth and inhibition of growth was assessed by the Cell Titer Glo assay (Promega, Madison, WI) and was performed according to the manufacturer's instructions. The Cell Titer Glo assay is a luminescence-based method used to determine the number of viable cells based on quantitation of the ATP present, which is directly proportional to the amount of metabolically active cells present. Ba/F3 cells of different EGFR genotypes were exposed to compounds for 72 hours and the number of cells used per experiment was determined empirically as has been previously established (Zhou, et al., Nature 2009). All experimental points were set up in triplicates in 384-well plates. […] The curves were fitted using a non-linear regression model with a sigmoidal dose response.
(§3) Ba/F3 cells assay data are provided below in Table 5 and Table 6. For inhibitory activity against EGFR mutants, the following designations are used: <0.1 μM=A, 0.1 μM˜0.5 μM=B, 0.5 μM˜2.5 μM=C, ≥2.5 μM=D
(ATP-based viability assays read luminescence as a measure of living cells.)

The target in assay [2] is EGFR L858R/C797S Ba/F3 cells (Homo sapiens, UniProt P00533, C797S/L858R, cells depend on it). The assay can be described thus: Ba/F3 cell proliferation (Cell Titer Glo), EGFR L858R/C797S. As to conditions: 72 hours, Table 6. The assay is classed as cell-based, murine.
Chain of EGFR L858R/C797S Ba/F3 cells (P00533 whole entry C797S/L858R): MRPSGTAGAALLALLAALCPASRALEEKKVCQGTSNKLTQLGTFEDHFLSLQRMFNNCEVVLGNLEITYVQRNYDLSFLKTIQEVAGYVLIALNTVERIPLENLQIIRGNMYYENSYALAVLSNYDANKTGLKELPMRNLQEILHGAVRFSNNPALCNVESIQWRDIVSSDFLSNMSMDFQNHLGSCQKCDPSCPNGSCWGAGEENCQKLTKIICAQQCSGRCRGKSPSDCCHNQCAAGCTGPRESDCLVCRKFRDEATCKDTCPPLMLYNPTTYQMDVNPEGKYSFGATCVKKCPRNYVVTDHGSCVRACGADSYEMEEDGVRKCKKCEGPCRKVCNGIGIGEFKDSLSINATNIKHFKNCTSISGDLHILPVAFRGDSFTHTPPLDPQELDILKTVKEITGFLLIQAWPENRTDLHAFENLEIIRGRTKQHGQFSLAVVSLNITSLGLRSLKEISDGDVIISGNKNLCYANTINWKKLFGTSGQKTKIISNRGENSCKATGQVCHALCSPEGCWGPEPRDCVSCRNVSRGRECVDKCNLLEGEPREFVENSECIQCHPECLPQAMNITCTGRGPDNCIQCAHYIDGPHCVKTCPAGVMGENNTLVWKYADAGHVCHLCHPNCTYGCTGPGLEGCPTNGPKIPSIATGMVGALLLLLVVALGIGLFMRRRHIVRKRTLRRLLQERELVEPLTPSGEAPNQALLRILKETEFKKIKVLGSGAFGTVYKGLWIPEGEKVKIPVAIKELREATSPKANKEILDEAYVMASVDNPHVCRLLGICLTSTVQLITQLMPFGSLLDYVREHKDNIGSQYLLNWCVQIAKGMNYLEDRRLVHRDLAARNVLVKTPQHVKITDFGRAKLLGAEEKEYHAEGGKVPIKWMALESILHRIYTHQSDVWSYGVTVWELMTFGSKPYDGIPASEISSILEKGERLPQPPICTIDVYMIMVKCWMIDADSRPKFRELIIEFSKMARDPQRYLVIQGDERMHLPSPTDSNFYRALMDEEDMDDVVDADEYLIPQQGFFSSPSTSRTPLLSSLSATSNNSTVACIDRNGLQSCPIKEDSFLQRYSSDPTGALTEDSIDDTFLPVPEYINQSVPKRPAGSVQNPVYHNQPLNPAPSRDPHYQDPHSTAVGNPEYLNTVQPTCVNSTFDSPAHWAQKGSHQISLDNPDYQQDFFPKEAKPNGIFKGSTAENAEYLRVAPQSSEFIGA
From the text: as §1, §2, §3

Several values for one entry are separate records, joined by “and”; a condition that tells them apart may be missing. Equal entries are not always repeated. A value given as a limit tells only on which side of the number the result lay.

Chain of EGFR mutant L858R Ba/F3 cells (P00533 whole entry L858R, the tested form may be a part): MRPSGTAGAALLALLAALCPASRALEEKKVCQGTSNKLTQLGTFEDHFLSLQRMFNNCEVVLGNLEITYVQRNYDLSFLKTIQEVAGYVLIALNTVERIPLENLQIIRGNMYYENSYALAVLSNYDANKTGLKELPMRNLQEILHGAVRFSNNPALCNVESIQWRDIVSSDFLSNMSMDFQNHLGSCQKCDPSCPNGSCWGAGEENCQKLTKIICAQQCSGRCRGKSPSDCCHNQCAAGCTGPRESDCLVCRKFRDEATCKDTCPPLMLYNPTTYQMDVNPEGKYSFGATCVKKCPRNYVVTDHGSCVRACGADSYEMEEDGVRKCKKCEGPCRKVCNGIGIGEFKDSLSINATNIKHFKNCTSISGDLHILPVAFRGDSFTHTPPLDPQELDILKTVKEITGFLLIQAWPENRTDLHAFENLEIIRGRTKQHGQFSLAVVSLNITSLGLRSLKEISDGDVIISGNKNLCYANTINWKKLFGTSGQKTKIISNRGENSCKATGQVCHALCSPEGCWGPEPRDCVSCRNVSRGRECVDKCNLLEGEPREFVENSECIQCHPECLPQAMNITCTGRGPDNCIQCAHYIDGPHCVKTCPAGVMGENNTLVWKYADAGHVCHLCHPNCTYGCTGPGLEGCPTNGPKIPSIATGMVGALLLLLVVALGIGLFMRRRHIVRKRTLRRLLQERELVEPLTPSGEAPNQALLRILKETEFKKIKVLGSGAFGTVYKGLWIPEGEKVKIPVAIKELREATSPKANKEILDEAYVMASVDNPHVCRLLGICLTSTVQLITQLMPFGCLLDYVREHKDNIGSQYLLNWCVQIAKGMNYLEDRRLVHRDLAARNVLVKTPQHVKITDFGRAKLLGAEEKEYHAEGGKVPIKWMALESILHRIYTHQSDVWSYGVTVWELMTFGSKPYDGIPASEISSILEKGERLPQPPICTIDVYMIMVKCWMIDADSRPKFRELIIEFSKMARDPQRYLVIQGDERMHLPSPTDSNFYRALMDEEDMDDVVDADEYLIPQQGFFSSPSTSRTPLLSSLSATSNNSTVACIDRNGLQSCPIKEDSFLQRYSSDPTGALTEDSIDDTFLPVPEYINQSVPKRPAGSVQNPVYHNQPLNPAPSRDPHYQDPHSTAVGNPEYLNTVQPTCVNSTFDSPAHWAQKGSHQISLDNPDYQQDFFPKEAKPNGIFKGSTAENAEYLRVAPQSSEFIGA

On to `C=CC(=O)N1CCC(N2Cc3cnc(Nc4ccc(N5CCN(C)CC5)cc4)nc3N(C3CCCC3)C2=O)c2ccccc21` (stereo not drawn) [Compound 057, 1-cyclopentyl-7-[4-(4-methylpiperazin-1-yl)anilino]-S-(1-prop-2-enoyl-3,4-dihydro-2H-quinolin-4-yl)-4H-pyrimido[4,5-d]pyrimidin-2-one], for which the GI50 in assay [1] and in assay [2] was < 100 nM throughout.

Regarding `C=CC(=O)N1CCC(N2Cc3cnc(Nc4ccc(N5CCN(C)CC5)cc4)nc3N(C3CCOC3)C2=O)c2ccccc21` (stereo not drawn) [Compound 058], the GI50 in assay [1] and in assay [2] was < 100 nM throughout.

Regarding `C=CC(=O)N1CC2CC1CC2N1Cc2cnc(Nc3ccc(N4CCN(C)CC4)cc3)nc2N(C)C1=O` (stereo not drawn) [Compound 059, 1-methyl-7-[4-(4-methylpiperazin-1-yl)anilino]-S-(2-prop-2-enoyl-2-azabicyclo[2.2.1]heptan-5-yl)-4H-pyrimido[4,5-d]pyrimidin-2-one], the GI50 in assay [1] and in assay [2] was ≥ 2500 nM throughout.

`C=CC(=O)N1Cc2ccccc2C(N2Cc3cnc(Nc4ccc(N5CCN(C)CC5)cc4)nc3N(C)C2=O)C1` (stereo not drawn) [Compound 060, 3-(2-acryloyl-1,2,3,4-tetrahydroisoquinolin-4-yl)-1-methyl-7-((4-(4-methylpiperazin-1-yl)phenyl)amino)-3,4-dihydropyrimido[4,5-d]pyrimidin-2(1H)-one]: the GI50 in assay [1] and in assay [2] was ≥ 2500 nM throughout.

In the case of `C=CC(=O)N1CCC(N2Cc3cnc(Nc4cnn(C)c4)nc3N(C)C2=O)c2ccccc21` (stereo not drawn) [Compound 061], the GI50 in assay [1] and in assay [2] was < 100 nM in each case.

As to `C=CC(=O)N1CCC(N2Cc3cnc(Nc4cnn(CCN(C)C)c4)nc3N(C)C2=O)c2ccccc21` (stereo not drawn) [Compound 062], the GI50 in assay [1] and in assay [2] was < 100 nM in each case.

Turning to `C=CC(=O)N1CCC(N2Cc3cnc(Nc4cnn(CCO)c4)nc3N(C)C2=O)c2ccccc21` (stereo not drawn) [Compound 063], the GI50 in assay [1] and in assay [2] was < 100 nM each time.

Regarding `C=C(F)C(=O)N1CCC(N2Cc3cnc(Nc4ccc(N5CCN(C)CC5)cc4)nc3N(C)C2=O)c2ccccc21` (stereo not drawn) [Compound 064], the GI50 in assay [1] and in assay [2] was < 100 nM each time.

Consider `CN(C)C/C=C/C(=O)N1CCC(N2Cc3cnc(Nc4ccc(N5CCN(C)CC5)cc4)nc3N(C)C2=O)c2ccccc21` (stereo not drawn) [Compound 065], for which the GI50 in assay [1] and in assay [2] was 500 to 2500 nM throughout.

Consider `C=CC(=O)N1CCC(N2Cc3cnc(Nc4ccc(C5CCN(C)CC5)cc4)nc3N(C)C2=O)c2ccccc21` (stereo not drawn) [Compound 066], for which the GI50 in assay [1] and in assay [2] was < 100 nM each time.

Take `C=CC(=O)N1CCC(N2Cc3cnc(Nc4ccc(C5=CCN(C)CC5)cc4)nc3N(C)C2=O)c2ccccc21` (stereo not drawn) [Compound 067]: the GI50 in assay [1] and in assay [2] was < 100 nM in each case.

For `C=CC(=O)N1CCC(N2Cc3cnc(Nc4ccc(OCCN5CCCC5)cc4)nc3N(C)C2=O)c2ccccc21` (stereo not drawn) [Compound 068], the GI50 in assay [1] and in assay [2] was < 100 nM in each case.

In the case of `C=CC(=O)N1CCC(N2Cc3cnc(Nc4ccc(N5CCN(C)CC5)cn4)nc3N(C)C2=O)c2ccccc21` (stereo not drawn) [Compound 069], the GI50 in assay [1] and in assay [2] was < 100 nM throughout.

Take `C=CC(=O)N1CCC(N2Cc3cnc(Nc4ccc(CN5CCN(C)CC5)cn4)nc3N(C)C2=O)c2ccccc21` (stereo not drawn) [Compound 070]: the GI50 in assay [1] and in assay [2] was < 100 nM in each case.

For `C=CC(=O)N1CCC(N2Cc3cnc(Nc4ccc(N5CCN(C)CC5)c(C(F)(F)F)c4)nc3N(C)C2=O)c2ccccc21` (stereo not drawn) [Compound 071], the GI50 in assay [1] and in assay [2] was < 100 nM each time.

Take `C=CC(=O)N1CCC(N2Cc3cnc(Nc4cc(F)c(N5CCN(C)CC5)c(F)c4)nc3N(C)C2=O)c2ccccc21` (stereo not drawn) [Compound 072]: the GI50 in assay [1] and in assay [2] was < 100 nM throughout.

As for `C=CC(=O)N1CCC(N2Cc3cnc(Nc4cccc(N5CCN(C)CC5)c4)nc3N(C)C2=O)c2ccccc21` (stereo not drawn) [Compound 073], the GI50 in assay [1] and in assay [2] was < 100 nM throughout.

With `C=CC(=O)N1CCC(N2Cc3cnc(Nc4ccc(N(C)C)cc4)nc3N(C)C2=O)c2ccccc21` (stereo not drawn) [Compound 074], the GI50 in assay [1] and in assay [2] was < 100 nM in each case.

Turning to `C=CC(=O)N1CCC(N2Cc3cnc(Nc4ccc(N(C)CCN(C)C)cc4)nc3N(C)C2=O)c2ccccc21` (stereo not drawn) [Compound 075], the GI50 in assay [1] and in assay [2] was < 100 nM in each case.

As for `C=CC(=O)N1CCC(N2Cc3cnc(Nc4ccc(N(C)CCN(C)C)c(C(F)(F)F)c4)nc3N(C)C2=O)c2ccccc21` (stereo not drawn) [Compound 076], the GI50 in assay [1] and in assay [2] was < 100 nM throughout.

In the case of `C=CC(=O)N1CCC(N2Cc3cnc(Nc4ccc(N5CCN(C)CC5)cc4Cl)nc3N(C)C2=O)c2ccccc21` (stereo not drawn) [Compound 077], the GI50 in assay [1] and in assay [2] was < 100 nM each time.

For `C=CC(=O)N1CCC(N2Cc3cnc(Nc4ccc(CN5CCN(C)CC5)cc4)nc3N(C)C2=O)c2ccccc21` (stereo not drawn) [Compound 078], the GI50 in assay [1] and in assay [2] was < 100 nM throughout.

`C=CC(=O)N1CCC(N2Cc3cnc(Nc4ccc(N5CCN(C)CC5)c(Cl)c4)nc3N(C)C2=O)c2ccccc21` (stereo not drawn) [Compound 079]: the GI50 in assay [1] and in assay [2] was < 100 nM each time.

Take `C=CC(=O)N1CCC(N2Cc3cnc(Nc4ccc5c(c4)CCN(C)C5)nc3N(C)C2=O)c2ccccc21` (stereo not drawn) [Compound 080]: the GI50 in assay [1] and in assay [2] was < 100 nM throughout.

For the molecule `C=CC(=O)N1CCC(N2Cc3cnc(Nc4cccc(OC(F)F)c4)nc3N(C)C2=O)c2ccccc21` (stereo not drawn) [Compound 081], the GI50 in assay [1] and in assay [2] was < 100 nM in each case.

As to `C=CC(=O)N1CCC(N2Cc3cnc(Nc4ccc(F)c(C#N)c4)nc3N(C)C2=O)c2ccccc21` (stereo not drawn) [Compound 082], the GI50 in assay [1] is < 100 nM; in assay [2], 100 to 500 nM and < 100 nM.

On to `C=CC(=O)N1CCC(N2Cc3cnc(Nc4ccc(S(=O)(=O)NCCO)cc4)nc3N(C)C2=O)c2ccccc21` (stereo not drawn) [Compound 084], for which the GI50 in assay [1] and in assay [2] was ≥ 2500 nM in each case.

For `C=CC(=O)N1CCC(N2Cc3cnc(Nc4ccc(N5CCN(C)C6(CC6)C5)cc4)nc3N(C)C2=O)c2ccccc21` (stereo not drawn) [Compound 085, 1-methyl-7-[4-(4-methyl-4,7-diazaspiro[2.5]octan-7-yl)anilino]-S-(1-prop-2-enoyl-3,4-dihydro-2H-quinolin-4-yl)-4H-pyrimido[4,5-d]pyrimidin-2-one], the GI50 in assay [1] and in assay [2] was < 100 nM each time.

With `C=CC(=O)N1CCC(N2Cc3cnc(Nc4ccc(N5CCN(C)CC5)cn4)cc3N(C)C2=O)c2ccccc21` (stereo not drawn) [Compound 086, 1-methyl-7-[[5-(4-methylpiperazin-1-yl)-2-pyridyl]amino]-S-(1-prop-2-enoyl-3,4-dihydro-2H-quinolin-4-yl)-4Hpyrido[4,3-d]pyrimidin-2-one], the GI50 in assay [1] and in assay [2] was < 100 nM each time.

As for `C=CC(=O)N1CCC(N2Cc3cnc(Nc4ccc(N5CCN(C)CC5)cc4OC(F)(F)F)nc3N(C)C2=O)c2ccccc21` (stereo not drawn) [Compound 087], the GI50 in assay [1] and in assay [2] was < 100 nM each time.

For `C=CC(=O)N1CCC(N2Cc3cnc(Nc4ccc(CN5CCN(C)CC5)c(Cl)c4)nc3N(C)C2=O)c2ccccc21` (stereo not drawn) [Compound 088], the GI50 in assay [1] and in assay [2] was < 100 nM each time.

For `C=CC(=O)N1CCC(N2Cc3cnc(Nc4ccc(N5CCN(C)CC5)cc4)nc3N(C)C2=O)CC12CCC2` (stereo not drawn) [Compound 089, 1-methyl-7-[4-(4-methylpiperazin-1-yl)anilino]-S-(5-prop-2-enoyl-5-azaspiro[3.5]nonan-8-yl)-4H-pyrimido[4,5-d]pyrimidin-2-one], the GI50 in assay [1] and in assay [2] was ≥ 2500 nM each time.

With `C=C(C)C(=O)N1CC[C@H](N2Cc3cnc(Nc4ccc(N5CCN(C)CC5)cc4)nc3N(C)C2=O)c2ccccc21` [Compound 090], the GI50 in assay [1] and in assay [2] was 500 to 2500 nM each time.

In the case of `C/C=C/C(=O)N1CC[C@H](N2Cc3cnc(Nc4ccc(N5CCN(C)CC5)cc4)nc3N(C)C2=O)c2ccccc21` [Compound 091], the GI50 in assay [1] and in assay [2] was 100 to 500 nM in each case.

For the molecule `C=CC(=O)N1CCC(N2Cc3nnc(Nc4ccc(N5CCN(C)CC5)cc4)cc3N(C)C2=O)c2ccccc21` (stereo not drawn) [Compound 092, 5-methyl-S-[4-(4-methylpiperazin-1-yl)anilino]-7-(1-prop-2-enoyl-3,4-dihydro-2H-quinolin-4-yl)-8H-pyrimido[5,4-c]pyridazin-6-one], the GI50 in assay [1] and in assay [2] was ≥ 2500 nM throughout.

As to `C=C(F)C(=O)N1CC[C@H](N2Cc3cnc(Nc4cnn(CCO)c4)nc3N(C)C2=O)c2ccccc21` [Compound 093], the GI50 in assay [1] and in assay [2] was < 100 nM throughout.

The values are drawn from US20240352021A1 (DANA-FARBER CANCER INSTITUTE, INC., priority 2021, published 2024).
